Data taken from US20240200005A1, “METHOD FOR DEVELOPING AND/OR REPROGRAMMING PLANT CELLULAR OBJECTS” (SCREENSYS GMBH, priority 2021, published 2024).

Tested on: microspores of Brassica napus
Assay: Dose-response of TSA trigger on growth/reprogramming of microspores in microfluidic compartments (image-based size analysis)
Type: cell-based
Details: for percentage of total microspores larger than 45 μm (multicellular stage): after 3 days
Description: For the cultivation of the microspores, the desired compartment sequences were generated by application of the system as shown in FIG. 1. The core of the system 2 was a five-channel precision syringe pump 11 (NEMESYS Cetoni GmbH, Germany) which can feed up to five fluids 6a-6e carried in glass syringes 20 (SETonic GmbH, Germany). One channel was used for the delivery of perfluoro-methyldecalin (PP9) as carrier fluid 6/6a, which is immiscible with the other fluids and thus separates the individual aqueous compartments 4 from one another inside the generated compartment 4 sequence. Another channel was used for 1×NLN13 (recipe below) medium 6b to dilute the medium with the microspores 14 and adjust the total volume of the compartments 4, and thus the concentration of the plant cellular objects 14 and the other substances, during formation. Two different trigger solutions 6c, 6d were used in channels three and four. Channel five was used for dosing the cell suspension, i.e. the medium with the plant cellular objects 14, itself. A cell container vial 12 was employed to feed the microspores 14 into the compartment generator 10. For this, a small conical glass vial 12 with a capacity of about 2 ml was used (See FIG. 1). The vial 12 was filled with the microspore suspension, i.e. medium with plant cellular objects 14, and closed airtight and free of air bubbles. The initial microspore density in the vial 12 was about 700.000 microspores/ml.
By syringe pump-controlled addition of medium 6e into the container 12 the suspended microspores 14 were fed through the container outlet conduit 16, a 0.2 mm ID FEP tube, into the compartment generator 10. ID stands for inner diameter. Instead of medium 6e it is also contemplated to add carrier fluid 6 to the container 12 with the suspended microspores. The individual syringes 20 were connected with the compartment generator 10 via respective conduits 17. Compartments 4 of about 120 nL volume each were formed and forwarded in a 0.5 mm ID PTFE tube as the microfluidic conduit 8 for incubation. A detailed description of the used compartment generator 10 can be found in “Cao J, Richter F, Kastl M, Erdmann J, Burgold C, Dittrich D, Schneider S, Köhler J M, Groß GA (2020) Droplet-Based Screening for the Investigation of Microbial Nonlinear Dose-Response Characteristics System, Background and Examples. Micromachines. 10.3390/mi1106057”, which is incorporated herein in its entirety by reference. For sufficient diffusive aeration during long-time incubation times, PTFE tubes with low wall thickness were used (inner diameter: 0.5 mm, outer diameter: 1.0 mm). Typical flow rate conditions of about 30 μl/min for the aqueous phases, i.e. the sample fluid, i.e. the medium 6b, the medium with the plant cellular objects, and the trigger solutions 6c, 6d, and about 100 μl/min for the embedding phase, i.e. the carrier fluid 6a, were used. […] However, other tube materials and dimensions may be used.
For a dose-response experiment the Trichostatin A (TSA) was chosen as a trigger. The stimulating effect of TSA on the germination of the microspores 14 was investigated in a concentration range from 0.01 μM up to 5 μM. Therefore, TSA stock solutions of 0.2 μM TSA 6c and 10 μM TSA 6d were used in the syringes 20 for triggers 1 and 2. The application of an appropriate flow rate program yielded the compartment 4 sequence with the desired concentrations of TSA in the compartments 4, as shown in FIG. 2. The resulting compartments 4 were composed of 50% volume microspore suspension, 50%-0% dilution medium 6b and 0-50% of the trigger solution 6c, 6d. Depending on the intended concentration of TSA in the generated compartments 4, either 0.2 μM TSA solution 6c or 10 μM TSA solution 6d was added to the generated compartments 4. The flow rate for the carrier medium 6e, here PP9, was kept constant at 50 μl/min. […]

## CC(/C=C/C(=O)NO)=C\[C@@H](C)C(=O)c1ccc(N(C)C)cc1 [TSA, Trichostatin A]
0.01 μM TSA, after 3 days incubation at 32° C.
  percentage of microspores larger than 35 μm: about 3%
0.01 μM TSA, after 6 days versus 3 days
  change of percentage of microspores larger than 35 μm: increased only marginally
0.05 μM TSA
  percentage of total microspores larger than 45 μm (multicellular stage): about 1%
0.05 μM TSA, after 6 days
  percentage of total microspores with a diameter of at least 35 μm: about 8%
  percentage of very large microspores (>45 μm): about 2%
0.1 μM TSA
  percentage of total microspores larger than 45 μm (multicellular stage): about 1%
0.1 μM TSA, after 3 days incubation at 32° C.
  percentage of microspores larger than 35 μm: ~9%
0.1 μM TSA, after 6 days
  percentage of microspores larger than 35 μm (total column): 11.4%
  proportion of microspores larger than 45 μm: 4.4%
0.35 μM TSA
  percentage of total microspores larger than 45 μm (multicellular stage): about 1%
0.35 μM TSA, after 3 days incubation at 32° C.
  percentage of microspores larger than 35 μm: 8%
0.35 μM TSA, after 6 days
  percentage of microspores larger than 35 μm: 11.7%
  percentage of very large microspores (>45 μm): 3.8%
0.5 μM TSA, after 3 days incubation at 32° C.
  percentage of microspores larger than 35 μm: about 4.4%
0.5 μM TSA, after 6 days
  percentage of total microspores with a diameter of at least 35 μm: about 8%
  percentage of very large microspores (>45 μm): about 2%
1 μM TSA, after 3 days incubation at 32° C.
  percentage of microspores larger than 35 μm: ~4%
1 μM TSA, after 6 days
  green portion of column (microspores larger than 45 μm): approximately 1.7%
  percentage of microspores larger than 35 μm (total column height): 6.4%
2 μM TSA, after 3 days incubation at 32° C.
  percentage of microspores larger than 35 μm: ~0%
2 μM TSA, after 6 days
  percentage of microspores larger than 35 μm: about 1.3%
5 μM TSA, after 3 days incubation at 32° C.
  percentage of microspores larger than 35 μm: 0%
5 μM TSA, after 6 days
  growth of microspores: without any recognizable growth
0.05 M TSA (so in the source), after 3 days incubation at 32° C.
  percentage of microspores larger than 35 μm: approximately 7.6%
microspores, no recognizable growth after 6 days
  lethal dose: 5 µM
